Reference: US11634452B2, “Compounds for treating neurodegenerative disorders” (ETHNODYNE, priority 2017, dated 2023)
Entries after “also recorded” stand apart in the source; their conditions may differ.

System: primary rat dopaminergic neurons (TH positive neurons) injured with 6-OHDA
Test: Neuroprotective effect following exposure to 6-OHDA, with or without pathway inhibitors
Type: cell-based
Experimental: This study investigated the mode of action of CR777 on rat primary mesencephalic cultures following exposure to 6-OHDA. The effect of CR777 on level of GDNF and BDNF mRNA was investigated after 24 h 6-OHDA incubation and CR777. The main pathways of survival, regulation of the apoptosis and neuronal growth were investigated in presence of CR777 and inhibitors of these different pathways. The following pathways were investigated using antagonists of different proteins of interest: • RAS (small GTPase)/RAF (proto-oncogene Serine/threonine kinase); • Peroxisome proliferator-activated receptor gamma (PPAR-γ) (nuclear receptor) • The Pi3K/AKT/mTor (cell signaling pathway that plays a key role in cellular homeostasis through its role in regulation of apoptosis, cell growth, cell cycle). • NO (nitric oxide) pathway
Rat dopaminergic neurons were cultured as described in Example 4.
On day 6 of culture, the medium was removed and fresh medium was added, without or with 6-OHDA (Sigma, Batch: 083M4624V) at 20 μM diluted in control medium and let for 48 h. In parallel, all inhibitors were solved in culture medium and were added 2 h before the 6-OHDA application (namely 1 h before test compounds application).
CR777 was solved in DMSO at 10 mM, diluted in culture medium and then pre-incubated with mesencephalic neurons 1 hour before the 6-OHDA application (48 h). 6 wells per condition were assessed.
For survival and α-syn aggregation, compound was tested on 1 culture in a 96 well-plate (6 wells per condition), was pre-incubated 1 hour before 6-OHDA and let for 48 hours.
The following conditions were assessed: • Control (culture medium) • +6-OHDA (20 μM, 48 h) • +6-OHDA (20 μM, 48 h)+CR777 1 μM • +6-OHDA (20 μM, 48 h)+CR777 100 nM • +6-OHDA (20 μM, 48 h)+CR777 10 nM • +6-OHDA (20 μM, 48 h)+CR777 1 nM
For pathway investigation, the compound was tested on one primary dopaminergic culture in 96 well plates (6 wells per conditions).
Inhibitors were pre-incubated for 2 hours before 6-OHDA application and CR777 was pre-incubated 1 hour before 6-OHDA application.
The antagonists/inhibitors used in the experiments are the following: • FTS: farnesylthiosalicylic acid selectively disrupts the association of chronically active Ras proteins with the plasma membrane. • BEZ-235: dual PI3K/mTOR inhibitor. • T0070907: selective PPAR-γ antagonist • L-NAME (Nitro-L-arginine methyl ester): precursor to NOS inhibitor, L-NNA—requires bioactivation to become a fully functional inhibitor. • ABT-199: selective inhibitor of Bcl-2.
48 hours after intoxication, the cell culture supernatant was taken off and the dopaminergic neurons were fixed by a solution of 4% paraformaldehyde in PBS, pH=7.3 for 20 min at room temperature.
After permeabilization with 0.1% of saponin, cells were incubated for 2 hours with:
monoclonal Anti-Tyrosine Hydroxylase (TH) antibody produced in mouse at dilution of 1/10000 in PBS containing 1% FCS, 0.1% saponin,
polyclonal anti-α-syn antibody produced in rabbit at dilution of 1/200 for 2 h at room temperature.
For each condition, 20 pictures/well (representative of ˜the all well area) were automatically taken using ImageXpress (Molecular Devices) with 10× magnification. All images were taken with the same conditions. Analysis were automatically performed by using Custom Module Editor (Molecular Devices).
The following endpoint was investigated for each culture well: • The total dopaminergic neuron survival (TH staining), • The total area of α-syn on TH positive neuron (overlapping α-syn/TH)
After permeabilization with 0.1% of saponin, cells were incubated for 2 hours with monoclonal Anti-Tyrosine Hydroxylase (TH) antibody produced in mouse at dilution of 1/10000 in PBS containing 1% FCS, 0.1% saponin, for 2 h at room temperature.
The total dopaminergic neuron survival (TH staining) was investigated for each culture well.

## CC1=C(CO)C(=O)O[C@@H]([C@@H](C)[C@H]2CCC3C4C[C@H](SC[C@H](NC(=O)CC[C@@H](N)C(=O)O)C(=O)NCC(=O)O)[C@]5(O)[C@@H](O)C=CC(=O)[C@]5(C)C4CC[C@@]32C)C1 (some centres unmarked) [CR777]
CR777 10 nM + ABT 199 (5 μM), 6-OHDA 20 μM
  neuroprotective effect (TH neuron survival) in presence of Bcl2 pathway inhibitor: did not induce any changes
CR777 10 nM + BEZ235 (40 nM), 6-OHDA 20 μM
  neuroprotective effect (TH neuron survival) in presence of PI3K/AKT/mTOR pathway inhibitor: fully abolished
CR777 10 nM + FTS (4 μM), 6-OHDA 20 μM
  neuroprotective effect (TH neuron survival) in presence of Ras/Raf pathway inhibitor: did not induce any changes
CR777 10 nM + L-NAME (100 μM), 6-OHDA 20 μM
  neuroprotective effect (TH neuron survival) in presence of nNOS pathway inhibitor: did not induce any changes
CR777 10 nM + T0070907 (1 μM), 6-OHDA 20 μM
  neuroprotective effect (TH neuron survival) in presence of PPARγ pathway inhibitor: no effect was observed
CR777 10 nM added 1 h before 6-OHDA (20 μM, 48 h), bell shape curve
  TH positive neuron survival: significantly protected neurons from death; also recorded: significant protective effect; also recorded: able to protect TH positive neurons
CR777 10 and 100 nM, 6-OHDA 20 μM, 48 h
  α-syn aggregation in TH positive neurons: able to reduce the aggregation; also recorded: partially protected
All concentrations tested (1 nM to 1 μM), 6-OHDA 20 μM, 48 h
  dopaminergic neurite network: significant protective effect
